Data as given in the supplement of paper PMC10307832.

Legend:
Assay in all cases: relative viability (nuclei count vs DMSO), 5 days (fraction); higher = more cells survive
A-427 = test system: A-427
Outline: (§1)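 The day after seeding in 1536-well plates, lung cancer cell lines were treated by pin tool with a single drug, or with a fixed anchor-drug dose together with five library-drug doses (not always all listed) in √10 steps. After 5 days, a combined fix-and-stain solution (final 0.05% Triton X-100, 1% formaldehyde, 1 ug/ml Hoechst) was added. Nuclei counted on 4× images gave relative viability as treated counts over vehicle counts, reported as the median of duplicate plates.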

ABC-1 = test system: ABC-1
Outline: as §1

COR-L23 = test system: COR-L23
Outline: as §1

ChaGo-K-1 = test system: ChaGo-K-1
Outline: as §1

HARA = test system: HARA
Outline: as §1

LCLC-97TM1 = test system: LCLC-97TM1
Outline: as §1

LK-2 = test system: LK-2
Outline: as §1

LOU-NH91 = test system: LOU-NH91
Outline: as §1

LU99A = test system: LU99A
Outline: as §1

NCI-H1395 = test system: NCI-H1395
Outline: as §1

NCI-H1651 = test system: NCI-H1651
Outline: as §1

NCI-H1734 = test system: NCI-H1734
Outline: as §1

NCI-H1792 = test system: NCI-H1792
Outline: as §1

NCI-H1975 = test system: NCI-H1975
Outline: as §1

NCI-H2023 = test system: NCI-H2023
Outline: as §1

NCI-H2126 = test system: NCI-H2126
Outline: as §1

NCI-H2342 = test system: NCI-H2342
Outline: as §1

NCI-H23 = test system: NCI-H23
Outline: as §1

NCI-H2405 = test system: NCI-H2405
Outline: as §1

NCI-H3122 = test system: NCI-H3122
Outline: as §1

NCI-H460 = test system: NCI-H460
Outline: as §1

NCI-H661 = test system: NCI-H661
Outline: as §1

NCI-H838 = test system: NCI-H838
Outline: as §1

SK-MES-1 = test system: SK-MES-1
Outline: as §1

SW 1573 = test system: SW 1573
Outline: as §1

## Nc1cccc2c1CN(C1CCC(=O)NC1=O)C2=O (configuration not stated) [Lenalidomide] + Nc1ncn([C@H]2C[C@H](O)[C@@H](CO)O2)c(=O)n1 [Decitabine] (partner 2 µM)
A-427; first compound 0.253 µM
  relative viability: 0.566
A-427; first compound 0.8 µM
  relative viability: 0.573
A-427; first compound 2.53 µM
  relative viability: 0.646
A-427; first compound 8 µM
  relative viability: 0.552
ABC-1; first compound 0.253 µM
  relative viability: 0.929
ABC-1; first compound 0.8 µM
  relative viability: 1.05
ABC-1; first compound 2.53 µM
  relative viability: 0.827
ABC-1; first compound 8 µM
  relative viability: 0.939
COR-L23; first compound 0.253 µM
  relative viability: 0.416
COR-L23; first compound 0.8 µM
  relative viability: 0.395
COR-L23; first compound 2.53 µM
  relative viability: 0.491
COR-L23; first compound 8 µM
  relative viability: 0.409
ChaGo-K-1; first compound 0.253 µM
  relative viability: 0.519
ChaGo-K-1; first compound 0.8 µM
  relative viability: 0.551
ChaGo-K-1; first compound 2.53 µM
  relative viability: 0.525
ChaGo-K-1; first compound 8 µM
  relative viability: 0.538
HARA; first compound 0.253 µM
  relative viability: 0.597
HARA; first compound 2.53 µM
  relative viability: 0.538
HARA; first compound 8 µM
  relative viability: 0.561
LCLC-97TM1; first compound 0.253 µM
  relative viability: 0.226
LCLC-97TM1; first compound 0.8 µM
  relative viability: 0.236
LCLC-97TM1; first compound 2.53 µM
  relative viability: 0.256
LCLC-97TM1; first compound 8 µM
  relative viability: 0.221
LK-2; first compound 0.253 µM
  relative viability: 0.312
LK-2; first compound 0.8 µM
  relative viability: 0.177
LK-2; first compound 2.53 µM
  relative viability: 0.36
LK-2; first compound 8 µM
  relative viability: 0.187
LOU-NH91; first compound 0.253 µM
  relative viability: 0.815
LOU-NH91; first compound 0.8 µM
  relative viability: 0.826
LOU-NH91; first compound 2.53 µM
  relative viability: 0.831
LOU-NH91; first compound 8 µM
  relative viability: 0.765
LU99A; first compound 0.253 µM
  relative viability: 0.894
LU99A; first compound 0.8 µM
  relative viability: 0.823
LU99A; first compound 2.53 µM
  relative viability: 0.868
LU99A; first compound 8 µM
  relative viability: 0.702
NCI-H1395; first compound 0.253 µM
  relative viability: 0.763
NCI-H1395; first compound 2.53 µM
  relative viability: 0.743
NCI-H1395; first compound 8 µM
  relative viability: 0.703
NCI-H1651; first compound 0.253 µM
  relative viability: 0.631
NCI-H1651; first compound 0.8 µM
  relative viability: 0.5
NCI-H1651; first compound 2.53 µM
  relative viability: 0.645
NCI-H1651; first compound 8 µM
  relative viability: 0.582
NCI-H1734; first compound 0.253 µM
  relative viability: 0.508
NCI-H1734; first compound 0.8 µM
  relative viability: 0.478
NCI-H1734; first compound 2.53 µM
  relative viability: 0.568
NCI-H1734; first compound 8 µM
  relative viability: 0.485
NCI-H1792; first compound 0.253 µM
  relative viability: 0.568
NCI-H1792; first compound 0.8 µM
  relative viability: 0.454
NCI-H1792; first compound 2.53 µM
  relative viability: 0.541
NCI-H1792; first compound 8 µM
  relative viability: 0.384
NCI-H1975; first compound 0.253 µM
  relative viability: 0.414
NCI-H1975; first compound 0.8 µM
  relative viability: 0.334
NCI-H1975; first compound 2.53 µM
  relative viability: 0.421
NCI-H1975; first compound 8 µM
  relative viability: 0.356
NCI-H2023; first compound 0.253 µM
  relative viability: 0.205
NCI-H2023; first compound 0.8 µM
  relative viability: 0.269
NCI-H2023; first compound 2.53 µM
  relative viability: 0.248
NCI-H2023; first compound 8 µM
  relative viability: 0.231
NCI-H2126; first compound 0.253 µM
  relative viability: 0.645
NCI-H2126; first compound 0.8 µM
  relative viability: 0.611
NCI-H2126; first compound 2.53 µM
  relative viability: 0.578
NCI-H2126; first compound 8 µM
  relative viability: 0.516
NCI-H2342; first compound 0.253 µM
  relative viability: 0.687
NCI-H2342; first compound 0.8 µM
  relative viability: 0.678
NCI-H2342; first compound 2.53 µM
  relative viability: 0.624
NCI-H2342; first compound 8 µM
  relative viability: 0.699
NCI-H23; first compound 0.253 µM
  relative viability: 0.302
NCI-H23; first compound 2.53 µM
  relative viability: 0.315
NCI-H23; first compound 8 µM
  relative viability: 0.305
NCI-H2405; first compound 0.253 µM
  relative viability: 0.719
NCI-H2405; first compound 0.8 µM
  relative viability: 0.817
NCI-H2405; first compound 2.53 µM
  relative viability: 0.782
NCI-H2405; first compound 8 µM
  relative viability: 0.632
NCI-H3122; first compound 0.253 µM
  relative viability: 0.375
NCI-H3122; first compound 0.8 µM
  relative viability: 0.536
NCI-H3122; first compound 2.53 µM
  relative viability: 0.381
NCI-H3122; first compound 8 µM
  relative viability: 0.386
NCI-H460; first compound 0.253 µM
  relative viability: 0.402
NCI-H460; first compound 0.8 µM
  relative viability: 0.476
NCI-H460; first compound 2.53 µM
  relative viability: 0.64
NCI-H460; first compound 8 µM
  relative viability: 0.649
NCI-H661; first compound 0.253 µM
  relative viability: 0.568
NCI-H661; first compound 0.8 µM
  relative viability: 0.548
NCI-H661; first compound 2.53 µM
  relative viability: 0.621
NCI-H661; first compound 8 µM
  relative viability: 0.568
NCI-H838; first compound 0.253 µM
  relative viability: 0.483
NCI-H838; first compound 0.8 µM
  relative viability: 0.404
NCI-H838; first compound 2.53 µM
  relative viability: 0.527
NCI-H838; first compound 8 µM
  relative viability: 0.491
SK-MES-1; first compound 0.253 µM
  relative viability: 0.362
SK-MES-1; first compound 0.8 µM
  relative viability: 0.342
SK-MES-1; first compound 2.53 µM
  relative viability: 0.428
SK-MES-1; first compound 8 µM
  relative viability: 0.394
SW 1573; first compound 0.253 µM
  relative viability: 0.536
SW 1573; first compound 0.8 µM
  relative viability: 0.625
SW 1573; first compound 2.53 µM
  relative viability: 0.591
SW 1573; first compound 8 µM
  relative viability: 0.542
